US6310273A, “Inhibiting apoptosis in plants using a baculovirus p35 protease inhibitor gene” (The Regents of the University of California, priority 1999, dated 2001)
Peptide text beside a SMILES is read from it.

Experiments:
[1] = tested on: Pseudomonas syringae pv. tomato in tomato leaves; experiment: Leaf infiltration of bacteria with peptide inhibitor, cell death; assay type: in vivo; conditions: compatible interaction; inhibitor syringe-infiltrated with bacteria into leaf
Method: (§1) A leaf of the susceptible plant of interest is syringe or vacuum infiltrated with a concentration of virulent bacteria sufficient to cause disease and tissue death. A portion of the same leaf or another leaf on the same plant of similar position and age is infiltrated with bacteria and the tetrapeptide inhibitor. Usually a 0.5 mM concentration of inhibitor is sufficient to inhibit disease but may vary according to pathogen and host plant. Disease is permitted to develop under conditions suitable for the plant/pathogen combination. Symptoms are viewed over the course of the experiment to assess the level of symptom (death) inhibition by the caspase inhibitor compared to the control. The affect of the caspase inhibitor on bacterial growth can be assayed by taking samples of the tissue and performing growth curves of the pathogen as described in the literature.
(§2) Host plant leaves are infiltrated with bacteria at a suitable concentration (10^4 -10^8 colony forming units per ml) to cause disease. Leaves of the same age and position on the same or a different plant are infiltrated with bacteria of the same concentration with the desired peptide inhibitor added. All solutions are infiltrated directly into the plant leaf lamina with a syringe. Disease symptoms in the form of dead areas of cells are quantified by time lapse color image capture and lesion area measurements determined by digital image analysis. Samples of the control tissue and inhibitor treated tissues are analyzed on a time course basis for bacterial growth rate.
(§3) Pathogen growth is measured by grinding leaf disc samples in a suitable buffer followed by serial dilutions and plating of samples onto agar plates to determine the relative number of colonies produced. Colony counts are then related back to the original undiluted samples. Growth values are reported as means of several samples with appropriate statistical measures of mean separation. Differential effects of the inhibitors thus are measured both in terms of the amount of apoptotic cell death induced (symptoms) and by the effect of altering cell death induction on the amount of pathogen growth in the tissue.

[2] = tested on: Pseudomonas syringae pv. tabaci in tobacco leaves; experiment: as above; assay type: in vivo; conditions: compatible interaction; inhibitor syringe-infiltrated with bacteria into leaf
Method: as §1, §2, §3

[3] = tested on: Pseudomonas syringae pv. phaseolicola in tobacco leaves; experiment: as above; assay type: in vivo; conditions: incompatible interaction (non-host hypersensitive response); inhibitor syringe-infiltrated with bacteria into leaf
[4] = target: T1, caspase-3 (CPP32, apopain, Yama) (Homo sapiens, UniProt P42574); conditions: 0.1 uM inhibitor; 100 ul reaction, 30 units caspase-3, 0.2 mM DEVD-p-nitroanilide; cited from earlier work
T1 construct: purchased BIOMOL Research Laboratories, Inc. AK-700
T1 sequence (P42574 29-175 limits assumed): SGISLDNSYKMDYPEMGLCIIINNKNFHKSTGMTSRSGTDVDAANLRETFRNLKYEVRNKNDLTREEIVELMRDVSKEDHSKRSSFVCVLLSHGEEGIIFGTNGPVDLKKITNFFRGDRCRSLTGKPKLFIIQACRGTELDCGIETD
T1 sequence (P42574 176-277 limits assumed): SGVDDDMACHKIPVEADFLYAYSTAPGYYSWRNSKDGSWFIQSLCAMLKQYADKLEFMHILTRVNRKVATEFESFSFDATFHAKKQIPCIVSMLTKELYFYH

[5] = tested on: Pseudomonas syringae pv. syringae in tomato leaves; experiment: Leaf infiltration of bacteria with peptide inhibitor, cell death; assay type: in vivo; conditions: compatible interaction; inhibitor syringe-infiltrated with bacteria into leaf
Method: as §1, §2, §3

[6] = tested on: Pseudomonas syringae pv. phaseolicola in bean leaves; experiment: as above; assay type: in vivo; conditions: compatible interaction; inhibitor syringe-infiltrated with bacteria into leaf
Method: as §1, §2, §3

[7] = tested on: Xanthamonas campestris pv tomato in tomato leaves; experiment: as above; assay type: in vivo; conditions: compatible interaction; inhibitor syringe-infiltrated with bacteria into leaf
Method: as §1, §2, §3

[8] = tested on: Pseudomonas syringae pv. angulata in tobacco leaves; experiment: as above; assay type: in vivo; conditions: compatible interaction; inhibitor syringe-infiltrated with bacteria into leaf
Method: as §1, §2, §3

[9] = tested on: Pseudomonas syringae pv. tomato (avrPto) in tomato (Pto/Pto) leaves; experiment: as above; assay type: in vivo; conditions: incompatible interaction (host specific gene for gene hypersensitive response); inhibitor syringe-infiltrated with bacteria into leaf
tobacco = experiment: Blocking of apoptotic death or disease in tobacco; assay type: in vivo
bean = experiment: Blocking of apoptotic death or disease in bean; assay type: in vivo

Compound	blocking of cell death [1]	blocking of cell death [2]	blocking of cell death [3]	blocking of cell death [9]	other results
CC(=O)N[C@@H](Cc1ccc(O)cc1)C(=O)N[C@H](C(=O)N[C@@H](C)C(=O)N[C@H](C=O)CC(=O)O)C(C)C [Ac-YVAD-CHO]	blocks cell death but less well than others	blocks cell death but less well than others	blocks cell death but less well than others		
CSCC[C@H](NC(=O)[C@H](CC(=O)O)NC(C)=O)C(=O)N[C@@H](CCC(N)=O)C(=O)N[C@H](C=O)CC(=O)O [Ac-DMQD-CHO] (Ac-DMQD-aldehyde)	blocks cell death	blocks cell death	blocks cell death		
CC(=O)N[C@@H](CC(=O)O)C(=O)N[C@@H](CCC(=O)O)C(=O)N[C@H](C(=O)N[C@H](C=O)CC(=O)O)C(C)C [Ac-DEVD-CHO]	blocks cell death	blocks cell death	blocks cell death	blocks cell death	blocking of caspase-3 activity [4]: completely blocked; blocking of cell death [5]: blocks cell death; blocking of cell death [6]: blocks cell death; blocking of cell death [7]: blocks cell death; blocking of cell death [8]: blocks cell death
Ac-Leu-Arg-Arg-aldehyde		does not block cell death			
Ac-DQMD-aldehyde				blocks cell death	
CC(=O)N[C@@H](CC(C)C)C(=O)N[C@@H](CC(C)C)C(=O)N[C@H](C=O)CCCNC(=N)N [leupeptin]					blocking apoptotic death or disease (tobacco): not effective; blocking apoptotic death or disease (bean): not effective
